{"source": "patent US20230072528A1", "about": "“METHODS FOR DISCONTINUING A TREATMENT WITH A TYROSINE KINASE INHIBITOR (TKI)” (INSERM (Institut National de la Santé et de la Recherche …, priority 2020, published 2023)", "tested_on": "innate CD8(+) T-cells", "test": "Ex vivo flow cytometry of peripheral blood CD8(+) T-cell subsets in CML patients under therapy (DASA-PEGIFN phase II trial)", "parameters": "species or system human", "conditions": "for innate CD8(+) T-cell frequency (mean±SD): 3 months after initiation of therapy", "procedure": "The phase II DASA-PEGIFN clinical trial was registered with EudraCT number 2012-003389-42. Briefly, newly diagnosed Ph^+ CP-CML patients were treated first-line with dasatinib at 100 mg/day. At 3 months, they were assigned to receive Peg-IFNα2b associated to dasatinib when platelets>100×109/L, neutrophils>1.5×10^9/L and lymphocytes<4.0×109/L counts were achieved. Venous blood was collected on heparin at several time points: diagnosis, 3, 6, 12 and 24 months after initiation of treatment Among the 61 patients receiving Dasatinib+Peg-IFNα2b therapy, we analysed samples from 40 patients. Two out of them were excluded for technical issues. See Table 1 for detailed patient's characteristics. Patients response to treatment were classified conforming to 2013 ELN criteria. Major molecular response was defined as a ratio of BCR-ABL1/ABL1≤0.1% on the international scale (IS). A ratio of BCR-ABL1/ABL1IS≤0.01% defined a molecular response of 4-log reduction or in our work a deep molecular response (DMR). All patients gave informed consent in accordance with the Declaration of Helsinki for participation in the study, which was approved by the scientific committee of the INSERM CIC-1402 (Poitiers, France) and Comité Protection Personnes Recherche Biomédicale Région Poitou Charentes (protocol number 12.10.31).\nPeripheral blood mononuclear cells (PBMC) were isolated from blood samples by density gradient centrifugation (Histopaque®-1077, Sigma-Aldrich, St Louis, Mo., US), resuspended in 90% Fetal Bovine Serum (10270106, Gibco®, Thermo Fisher Scientific, Waltham, Mass., US) with 10% DMSO (D2650, Sigma-Aldrich), and cryopreserved at −80° C. or in liquid nitrogen until use.\nPhenotypic analysis of cells from HD and CML patients was performed by ex vivo flow cytometry. All monoclonal antibodies (mAbs) used in this study are listed in Supplementary Table 2. The expression of the different markers was assessed by staining PBMC with appropriate combinations of mAbs. panKIR/NKG2A referred to staining with the mix of the three following antibodies from Miltenyi Biotec (Bergisch Gladbach, Germany) KIR2D, KIR3DL1/KIR3DL2 (CD158e/k) and NKG2A (CD159a). Dead cells were excluded using the Live/Dead® Fixable NearIR Dead Cell Stain kit (L10119, Invitrogen™, Thermo Fisher Scientific). For intranuclear Eomes staining, cells were permeabilized with anti-human Foxp3 staining kit according to the manufacturer's protocol (73-5776-40, eBioscience™, Thermo Fisher Scientific). Flow data were acquired on a FACSVerse flow cytometer (Becton, Dickinson & Compagny, Franklin Lakes, N.J., US) with FACSuite™ software (Becton, Dickinson & Compagny) and analyzed using FlowJo™ v10 (Becton, Dickinson & Compagny). Results are expressed as either percent positive cells or as mean fluorescence intensity (MFI).\nResults are shown as box and whiskers with 5 percentile, median and 95 percentile unless indicated otherwise. All statistical data analyses were performed using GraphPad Prism v7.0 (GraphPad software, Inc). Wilcoxon and Mann-Whitney two-tailed test were used for paired and unpaired data analysis, respectively. A p value<0.05 was considered significant. Cumulative response rates were calculated using the cumulative incidence approach and Mantle-Cox method. The cut-off point for innate CD8(+) T-cells was optimized by receiver operating characteristics (ROC) curves and the Youden index using the logarithm of innate CD8(+) T-cell frequency at diagnosis and after 3 months of therapy. Patients were dichotomized according to their low or high percentage of innate CD8(+) T-cells. Data are presented as Kaplan-Meier curves.", "key": {"[1]": {"conditions": "after 3 months of therapy as compared to diagnosis"}}}
{"smiles": "Cc1nc(Nc2ncc(C(=O)Nc3c(C)cccc3Cl)s2)cc(N2CCN(CCO)CC2)n1", "note": "[dasatinib, N-(2-chloro-6-methylphenyl)-2-[[6-[4-(2-hydroxyethyl)-1-piperazinyl]-2-methyl-4-pyrimidinyl]amino]-5-thiazole-carboxamide monohydrate]", "values": [{"measurement": "innate CD8(+) T-cell frequency (mean±SD)", "setting": "M12-DMR group (DMR achieved at 12 months)", "value": "9.14±6.54", "unit": "%"}, {"measurement": "innate CD8(+) T-cell frequency (mean±SD)", "setting": "M12-noDMR group (no DMR at 12 months)", "value": "3.48±2.43", "unit": "%"}, {"measurement": "frequency of innate CD8(+) T-cells (mean±SD)", "setting": "CML patients, whole group, after 3 months of therapy, among total CD8+TCR-αβ+ cells, 3.78±3.39% at diagnosis", "value": "5.98±5.43", "unit": "%"}, {"measurement": "Eomes and CD49d expression levels of innate CD8(+) T-cells", "setting": "[1]", "value": "significant increase"}, {"measurement": "conventional-memory CD8(+) T-cell frequency", "setting": "[1]", "value": "concomitantly increased"}, {"measurement": "naive CD8(+) T-cell frequency", "setting": "[1]", "value": "decreased"}]}
